Results on three compounds are retold here after patent publication US20260242428A1, “POLYETHYLENIMINE-MODIFIED CRY PROTEINS AND THEIR USE” (priority 2024, published 2026).

In experiment [1] the target is T1, CadA-Cry1Ab fusion particles, unmodified (E. coli lysine decarboxylase CadA, NP_418555, fused to Cry1Ab) (Escherichia coli, UniProt P0A9H3).
T1 construct: made in house; host or cells: E. coli BL21(DE3)
Nature of the experiment: PLP binding capacity of unmodified CadA-Cry1Ab particles. The conditions noted are these: before PEI modification.

Experiment [2] concerns the target T2, PEI-modified CadA-Cry1Ab fusion particles (E. coli lysine decarboxylase CadA, NP_418555, fused to Cry1Ab) (Escherichia coli, UniProt P0A9H3).
T2 construct: made in house; host or cells: E. coli BL21(DE3)
The experiment in a line: PLP binding capacity of PEI-CadA-Cry1Ab particles. As for the experimental part: For binding analysis, PEI-CadA-Cry1Ab fusion particles (50 μg/mL) were incubated with increasing concentrations of PLP (0-2 mM) for 25 min under gentle rotation at room temperature. After incubation, the particles were centrifuged at 8000 rpm for 10 min, and the unbound PLP in the supernatant was quantified. A calibration curve, generated from PLP standards treated under identical conditions, was used to determine the amount of PLP bound to the particles. To stabilize the absorbance peak of PLP following Schiff base formation with the protein, 1 M HCl was added to the unbound PLP supernatants in a 1:1 (v/v) ratio. After a 5-minute incubation, the absorbance of the unbound PLP was measured at 294 nm using an Eppendorf Bio-Spectrometer (Eppendorf AG. Germany). The PLP concentration was determined using a standard curve generated for various PLP amounts treated with 1M HCL based on the Beer-Lambert law.

Experiment [3] concerns the target T3, PEI-modified Cry3Aa (3A-PEI) crystals; Cry3Aa, SEQ ID NO: 4 (Bacillus thuringiensis subsp. tenebrionis, UniProt P0A379, F640R/R158P).
T3 construct: made in house; host or cells: Bacillus thuringiensis B7407G
Nature of the experiment: Cofactor binding capacity of 3A-PEI crystals. The conditions noted are these: 0.25 mM cofactor, 20 μg crystals, 10° C., 30 min. As for the experimental part: To compare the binding capacity of 3A-PEI crystals with Cry3Aa and Pos3Aa crystals, the same experiment was conducted as the control.
To evaluate whether 3A-PEI crystals could binding to other phosphorylated cofactors, PLP, NAD^+, NADP^+, NADPH, FADH2, CoA, Riboflavin, and TPP (each at a concentration of 0.25 mM) were incubated with 20 μg of 3A-PEI crystals for 30 min under slow rotation at 10° C. Subsequently, the crystals were centrifugated and the amount of bound cofactor within the crystals was quantified.

Experiment [4] has as its system 3A-FDH/3A-LDH particles, unmodified (co-immobilized Cry3Aa-formate dehydrogenase and Cry3Aa-leucine dehydrogenase). Nature of the experiment: NADH binding capacity of 3A-FDH/3A-LDH particles without PEI. The note with it: absorbance at 340 nm.

SMILES strings stand for the structures.

For the compound `Cc1ncc(COP(=O)(O)O)c(C=O)c1O` [PLP, Pyridoxal 5′-phosphate], the PLP binding capacity in experiment [1] was ~ 100 μmol/g; in experiment [2] (PLP 0-2 mM, 25 min, room temperature), ~ 1300 μmol/g. Besides, the “PLP binding capacity enhancement by PEI modification” value in experiment [2] (vs unmodified CadA-Cry1Ab) is 13 fold. For the same compound, the “binding affinity (binding capacity of cofactor)” value in experiment [3] is 650±2 μmol/g of support.

As to `Cc1ncc(C[n+]2csc(CCOP(=O)(O)OP(=O)(O)O)c2C)c(N)n1` [TPP], the “binding affinity (binding capacity of cofactor)” value in experiment [3] is on record as 160±1 μmol/g of support.

For `NC(=O)C1=CN([C@@H]2O[C@H](COP(=O)(O)OP(=O)(O)OC[C@H]3O[C@@H](n4cnc5c(N)ncnc54)[C@H](O)[C@@H]3O)[C@@H](O)[C@H]2O)C=CC1` [NADH, nicotinamide adenine dinucleotide], in experiment [4], the NADH retained was ~ 4.2±0.3 μmol NADH per g.
